Experiment: gradient 5% acetonitrile 3 min, to 50% in 2 min, to 85% in 15 min, held 3 min, 100 µL/min
Conditions: column: Zorbax Extend-C18 2.1 x 50 mm; eluents: water / acetonitrile, 0.1% formic acid
How it was run: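 Retention times come from adduct peaks that were picked computationally and then checked by hand. The standards, pure and pooled in mixtures of ~100 molecules, were run on a Zorbax Extend-C18 column (2.1 × 50 mm, 1.8 μm) at 100 μL/min with water and acetonitrile, each with 0.1% formic acid. Detection was by quadrupole time-of-flight mass spectrometry in positive and negative ionization mode, with a dead volume of 40 μL and a dwell volume of 900 μL.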

Row | RP-LC retention time [s] | SMILES
1 | 567 | CCN1CCN(C(=O)c2n[nH]c3c2CC(C)CC3)CC1 (stereo not given)
2 | 648 | CCCNC(=O)C1CCCN(c2ccc(SCC(=O)NCc3ccccc3)nn2)C1 (stereo not given)
3 | 1060 | CCc1cc(C(=O)Nc2ccccc2F)nc2ccnn12
4 | 593 | COc1ccc(NC(=O)CSc2nccc(N3CCCC3)n2)cc1Cl
5 | 650 | CC(=O)N1CCC2(CC1)NC(=O)c1cccc(C)c1O2
6 | 939 | Fc1ccccc1Cc1nc(-c2cccc(-c3ccn[nH]3)c2)no1
7 | 946 | COc1ccc(-n2c(=O)c3sccc3n(Cc3nc(-c4ccccc4Cl)no3)c2=O)cc1
8 | 870 | CCN1C(=O)c2cccnc2Sc2cc(NC(=O)Cc3c(F)cccc3Cl)ccc21
9 | 1050 | c1ccc(Sc2ncnc3ccccc23)cc1
10 | 963 | CC(=O)c1cccc(NC(=O)Cn2c(-c3ccc(F)cc3)nc(C)cc2=O)c1
11 | 884 | CCC(=O)N1CCc2ccccc2C1C(=O)NCc1ccccc1Br (stereo not given)
12 | 889 | O=C(CN1C(=O)C2CCCCN2c2ccc(C(=O)N3CCCCC3)cc21)NC1CCCCC1 (stereo not given)
13 | 707 | Cc1cccc(NC(=O)Cn2c(-c3cnccn3)nc(C)c(C)c2=O)c1
14 | 948 | Cc1cc(NC(=O)Cn2nc(C(=O)N3CCCC3)c3ccccc32)ccc1Br
15 | 1260 | Cn1c(C(=O)NCc2ccccc2Cl)cc2sc(Cl)cc21
16 | 1050 | Cc1ccc(-c2nc(Cn3cccc3C(=O)NC3CCCC3)no2)cc1
17 | 1140 | CC(C)n1c(=O)c2ccccc2n(Cc2nc(-c3ccccc3Br)no2)c1=O
18 | 961 | COc1ccc(C2C(=O)N(C3CCC(C)CC3)CC(=O)N2Cc2cccs2)cc1OC (stereo not given)
19 | 772 | CC1CCC2(CC1)NC(=O)N(CC(=O)NCc1ccccc1F)C2=O (stereo not given)
20 | 740 | COc1ccc(CCNC(=O)CN2C(=O)NC3(CCC(C)CC3)C2=O)cc1OC (stereo not given)
21 | 894 | CS(=O)(=O)N1CCC(C(=O)Nc2cccc(F)c2)Oc2ccccc21 (stereo not given)
22 | 686 | Cc1cnc(-c2ccccc2)n1C1CCN(S(=O)(=O)Cc2ccccc2)CC1

Row | RP-LC retention time [s] | SMILES
23 | 965 | Cc1ccc(C(=O)COC(=O)c2ccc3nc(C)c(C)nc3c2)cc1
24 | 944 | Cn1c(=O)c(N2CCC(NC(=O)Nc3cccc(Cl)c3)CC2)nc2ccccc21
25 | 726 | CN1c2ccccc2C(=O)NC12CCN(C(=O)Nc1cccc(F)c1)CC2
26 | 1120 | CC(C)(C)OC(=O)Cn1cnc2c(-c3ccc(Cl)cc3)csc2c1=O
27 | 855 | COc1ccc(-n2ccc(=O)c(-c3nc(-c4ccc5c(c4)OCO5)no3)n2)cc1
28 | 835 | Cc1ccc(-n2nnnc2CNC(=O)c2cc(Br)ccc2Cl)cc1
29 | 992 | Fc1ccc(-c2nnc(Cc3nc(-c4ccccc4)no3)o2)cc1
30 | 1030 | Cc1ccc(NC(=O)N2CCCC2c2nc(-c3cccc(F)c3)no2)c(C)c1 (stereo not given)
31 | 736 | CCCn1cc(CCNC(=O)Nc2c(C)cccc2C)c2cccnc21
32 | 767 | CN(C)S(=O)(=O)N1CCOc2ccc(CCC(=O)NCC3CC3)cc2C1
33 | 644 | O=C(NCC1CCCO1)N1CCc2[nH]nc(-c3ccccc3)c2C1 (stereo not given)
34 | 921 | N#Cc1ccc(C(=O)N2CCCC2c2nc(-c3ccc(F)cc3F)no2)cc1 (stereo not given)
35 | 940 | O=S(=O)(c1ccc(Cl)cc1)N1CCC(c2nc(-c3ccccn3)no2)CC1
36 | 940 | O=C(CSc1nnc2c3cc(-c4ccc(F)cc4)nn3ccn12)Nc1ccc(F)cc1Cl
37 | 956 | COc1cccc(-n2c(=O)c3sccc3n(Cc3nc(-c4ccccc4)no3)c2=O)c1
38 | 848 | O=C(NCCc1cccs1)C1CCCN(C(=O)c2cccn2-c2cccnc2)C1 (stereo not given)
39 | 735 | CC(C)NC(=O)Cn1cccc(-c2nc(-c3ccc(F)cc3)no2)c1=O
40 | 1290 | Cc1ccc(-c2csc(NC(=O)CSc3nc4c(cc3C#N)CCCC4)n2)cc1
41 | 817 | O=C(Cn1cc(-c2nnco2)c2ccccc21)NCc1cccc(Cl)c1
42 | 1030 | COc1ccc(-c2nc(Cn3ccn4nc(-c5ccccc5)cc4c3=O)c(C)o2)c(OC)c1
43 | 864 | CCOc1ccc(NC(=O)Cn2c(=O)n(-c3cccc(C)c3)c(=O)c3c2cc(C)n3C)cc1
44 | 915 | COc1cccc(C(=O)Nc2ccc3c(c2)Sc2ncccc2C(=O)N3C(C)C)c1OC

Row | RP-LC retention time [s] | SMILES
45 | 755 | CCOC(=O)c1[nH]c(C)c(CCC(=O)N2CCC(C(=O)NCc3cccs3)CC2)c1C
46 | 1040 | Cc1cc(C)cc(C(=O)N2CCCC(C(=O)NC3CCCCCCC3)C2)c1 (stereo not given)
47 | 602 | Cc1cccc(C)c1NC(=O)N1CCN(CCn2c(C(C)C)nc3cccnc32)CC1
48 | 911 | O=C(NCCCc1ccccc1)c1nnc(-c2ccc(S(=O)(=O)N3CCOCC3)cc2)o1
49 | 973 | COC(=O)c1ccc(-c2nc3cnccn3c2NC2CCCCC2)cc1
50 | 634 | Cc1ccn2cc(C(=O)N3CCN(c4ccccc4)CC3)nc2c1
51 | 594 | Cc1nn(C)c(C)c1CNC(=O)C1CC(=O)N(c2n[nH]c3cccc(F)c23)C1 (stereo not given)
52 | 832 | CCn1ccc2c(cc(C(=O)Nc3ccc(Br)cc3C)n2C)c1=O
53 | 686 | O=C(c1ccccn1)N1CCC(Oc2cc(N3CCCCC3)ncn2)C1 (stereo not given)
54 | 847 | CCc1cccc(N2C(=O)CN(S(C)(=O)=O)CC2(C)C(=O)NCc2ccc(F)cc2)c1 (stereo not given)
55 | 1170 | CCCNc1nc(-c2ccc(C3CCCCC3)cc2)cs1
56 | 1050 | O=C(O)c1ccccc1-n1c2ccccc2c2ccccc21
57 | 712 | O=C(Cn1c(=O)c(CCC(=O)NC2CC2)nc2ccccc21)Nc1ccccc1Br
58 | 960 | Cc1nn(C)c2nc(OC(C)C(=O)NCc3ccc(F)cc3)cc(C(F)(F)F)c12 (stereo not given)
59 | 985 | CC(C)(C)NS(=O)(=O)c1cc(-c2nnc(-c3ccccc3)o2)ccc1F
60 | 1200 | CCOc1ccc(C(=O)Nc2nc3c(s2)CCc2ccccc2-3)cc1
61 | 1030 | CCn1cc(-c2nc(C(=O)NCc3cc(F)cc(F)c3)cs2)c2cccnc21
62 | 863 | CSc1ccc(-c2nc3cnccn3c2Nc2ccc3c(c2)OCCO3)cc1
63 | 747 | CCCN(CCC)CCCNC(=O)C1CCCN(c2ncc(-c3cccc(F)c3)cn2)C1 (stereo not given)
64 | 944 | CCN1C(=O)c2ccccc2Oc2ccc(C(=O)NCCc3cccs3)cc21
65 | 570 | CC(=O)NCC(=O)N1CCCn2cc(-c3ccccc3)nc21
66 | 1100 | CCOC(=O)C1CCC(CNC(=O)Nc2ccc(-c3nc(-c4ccccc4)co3)cc2)CC1 (stereo not given)

Row | RP-LC retention time [s] | SMILES
67 | 1000 | CCn1c(=O)n(-c2ccc(F)cc2)c2nc(-c3ccc(F)cc3F)nc(C(N)=O)c21
68 | 927 | O=C(NCc1csc(-c2cccs2)n1)C1CCN(S(=O)(=O)c2ccc(Cl)cc2)CC1
69 | 1030 | COc1ccc(-c2cn3c(CC(=O)N4CCN(c5ccccn5)CC4)csc3n2)cc1OC
70 | 696 | CCOc1ncccc1CNC(=O)C1CCC1
71 | 674 | Cc1ccc(F)cc1NC(=O)Cn1cnc2nc(N3CCC(C(=O)NC4CC4)CC3)sc2c1=O
72 | 880 | COCCNS(=O)(=O)c1cccc(-c2nnc(-c3ccc(C)cc3)o2)c1
73 | 749 | Cc1nn(-c2ccc(C(=O)NCc3cccs3)cc2)c2c1C(=O)CCC2
74 | 676 | COc1ccc(-c2nc3cnccn3c2NCCC(=O)Nc2ccc3c(c2)OCCO3)cc1
75 | 756 | CCOc1ccccc1C(=O)NCC1CCN(C(=O)c2ccccc2F)CC1
76 | 1290 | Cc1ccc(C)c(CS(=O)(=O)N2CCc3nc(-c4ccc(Cl)cc4)ncc3C2)c1
77 | 844 | CCc1onc(C)c1C1CCCN1C(=O)Nc1ccc(C)cc1 (stereo not given)
78 | 628 | O=S(=O)(Cc1ccccc1)N1CCC(Cc2nc(-c3cccnc3)n[nH]2)C1 (stereo not given)
79 | 991 | O=C(Cn1ccc2ccc(N3CCCCC3)nc21)NCc1ccc(F)cc1Cl
80 | 711 | CNC(=O)C1CCCN(c2nc3ncn(CC(=O)Nc4ccc(C(F)(F)F)cc4)c(=O)c3s2)C1 (stereo not given)
81 | 729 | COc1cccc2sc(N(C)CC(=O)Nc3ccc(-n4cnnn4)cc3)nc12
82 | 776 | COCCNC(=O)C1(C)Cn2nc(-c3ccco3)cc2C(=O)N1c1ccc(OC)c(Cl)c1 (stereo not given)
83 | 647 | CCN1C(=O)CCc2cc(NC(=O)Cc3ccc(OC)cc3Cl)ccc21
84 | 990 | COc1cc(-c2noc(C3CC(=O)N(c4ccc(C)c(C)c4)C3)n2)cc(OC)c1OC (stereo not given)
85 | 778 | Cc1nc(CSCC(=O)Nc2ccc(Cl)cc2)cs1
86 | 986 | CCOc1ccccc1-c1noc(-c2nc(C)no2)n1
87 | 1130 | CCOc1ccc(-c2cc3c(=O)n(Cc4nc(-c5ccccc5C)no4)ncn3n2)cc1

Row | SMILES | RP-LC retention time [s]
88 | CSc1nc(C)c(Br)c(N2CC2)n1 | 596
89 | COc1ccc2c(c1)C1(CCN(C(=O)Nc3ccccc3)C1)C(=O)N2 (stereo not given) | 694
90 | O=C(CC1CCCN(c2cn[nH]c(=O)c2)C1)N1CCC2(CC1)OCCO2 (stereo not given) | 604

Reference: the METLIN SMRT retention time set (Domingo-Almenara et al. 2019)
